According to ChEMBL document CHEMBL1641477, “Shp2 protein tyrosine phosphatase inhibitor activity of estramustine phosphate and its triterpenoid analogs” (Bioorg Med Chem Lett, 2011):

Key:
[1] = target: T1, Tyrosine-protein phosphatase non-receptor type 11 (Homo sapiens, UniProt Q06124); assay: Inhibition of recombinant SHP2
T1 sequence (Q06124 whole entry): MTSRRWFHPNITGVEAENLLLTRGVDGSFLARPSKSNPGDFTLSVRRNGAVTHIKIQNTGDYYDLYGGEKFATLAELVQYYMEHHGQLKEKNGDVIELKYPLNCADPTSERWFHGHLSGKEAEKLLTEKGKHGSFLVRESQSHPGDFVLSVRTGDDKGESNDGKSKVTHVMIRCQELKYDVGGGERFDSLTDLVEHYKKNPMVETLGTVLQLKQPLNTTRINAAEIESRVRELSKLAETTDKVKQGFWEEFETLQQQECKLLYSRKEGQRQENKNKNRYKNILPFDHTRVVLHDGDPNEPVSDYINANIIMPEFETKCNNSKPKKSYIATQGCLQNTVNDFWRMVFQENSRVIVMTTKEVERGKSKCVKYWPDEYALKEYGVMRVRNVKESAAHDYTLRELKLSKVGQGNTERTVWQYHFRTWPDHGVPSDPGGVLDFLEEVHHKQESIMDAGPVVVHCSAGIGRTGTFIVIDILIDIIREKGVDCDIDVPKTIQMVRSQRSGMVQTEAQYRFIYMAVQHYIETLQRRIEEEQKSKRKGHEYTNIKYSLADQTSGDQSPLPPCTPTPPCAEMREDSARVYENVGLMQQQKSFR

[2] = target: Tyrosine-protein phosphatase non-receptor type 6 (Homo sapiens, UniProt P29350); assay: Inhibition of recombinant SHP1
Tyrosine-protein phosphatase non-receptor type 6, sequence (P29350 whole entry): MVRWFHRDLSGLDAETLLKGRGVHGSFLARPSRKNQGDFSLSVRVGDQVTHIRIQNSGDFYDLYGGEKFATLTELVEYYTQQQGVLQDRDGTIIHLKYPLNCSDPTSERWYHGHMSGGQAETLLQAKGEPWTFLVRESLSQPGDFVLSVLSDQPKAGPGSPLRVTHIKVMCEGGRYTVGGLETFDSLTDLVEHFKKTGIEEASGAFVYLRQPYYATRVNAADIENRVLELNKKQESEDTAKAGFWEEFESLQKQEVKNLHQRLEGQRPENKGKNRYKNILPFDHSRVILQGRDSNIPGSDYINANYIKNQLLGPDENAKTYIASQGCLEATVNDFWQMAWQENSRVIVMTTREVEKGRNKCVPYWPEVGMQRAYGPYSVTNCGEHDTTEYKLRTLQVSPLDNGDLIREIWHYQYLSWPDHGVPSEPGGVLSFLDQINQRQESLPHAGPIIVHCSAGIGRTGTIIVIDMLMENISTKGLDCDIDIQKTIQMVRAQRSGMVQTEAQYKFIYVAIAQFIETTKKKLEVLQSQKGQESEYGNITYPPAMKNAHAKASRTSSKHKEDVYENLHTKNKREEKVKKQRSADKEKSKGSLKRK

[3] = target: T2, Tyrosine-protein phosphatase non-receptor type 7 (Homo sapiens, UniProt P35236); assay: Inhibition of recombinant HePTP
T2 sequence (P35236 whole entry): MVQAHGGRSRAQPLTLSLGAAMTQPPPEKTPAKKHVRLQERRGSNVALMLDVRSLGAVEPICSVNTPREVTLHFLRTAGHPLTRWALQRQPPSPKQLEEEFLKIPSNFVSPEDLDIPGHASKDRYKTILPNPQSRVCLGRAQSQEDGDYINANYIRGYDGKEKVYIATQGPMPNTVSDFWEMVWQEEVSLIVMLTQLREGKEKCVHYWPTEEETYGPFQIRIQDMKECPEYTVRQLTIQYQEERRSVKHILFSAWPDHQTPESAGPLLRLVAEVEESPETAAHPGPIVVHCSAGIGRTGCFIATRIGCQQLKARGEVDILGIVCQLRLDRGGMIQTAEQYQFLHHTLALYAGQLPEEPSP

[4] = target: T3, Tyrosine-protein phosphatase non-receptor type 1 (Homo sapiens, UniProt P18031); assay: Inhibition of recombinant PTP1B
T3 sequence (P18031 whole entry): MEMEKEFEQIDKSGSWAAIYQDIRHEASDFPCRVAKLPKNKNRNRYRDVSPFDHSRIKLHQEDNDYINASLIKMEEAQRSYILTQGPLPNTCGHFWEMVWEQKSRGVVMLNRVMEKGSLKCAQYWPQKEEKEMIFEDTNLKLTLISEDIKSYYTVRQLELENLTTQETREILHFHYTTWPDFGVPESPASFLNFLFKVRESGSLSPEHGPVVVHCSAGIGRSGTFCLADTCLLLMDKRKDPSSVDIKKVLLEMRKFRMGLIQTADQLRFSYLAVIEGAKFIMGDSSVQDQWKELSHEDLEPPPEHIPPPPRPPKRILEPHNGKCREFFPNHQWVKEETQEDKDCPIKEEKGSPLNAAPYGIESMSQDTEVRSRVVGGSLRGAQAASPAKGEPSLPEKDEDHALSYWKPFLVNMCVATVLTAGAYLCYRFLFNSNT

[5] = target: T1, Tyrosine-protein phosphatase non-receptor type 11; assay: Binding affinity to recombinant SHP2 by surface plasmon […]
[6] = target: T4, Tyrosine-protein phosphatase non-receptor type 11 (Homo sapiens) (UniProt Q06124)
T4 sequence (whole entry): T1 sequence (Q06124 whole entry)
Description: Mixed inhibition of recombinant SHP2 at enzyme-substrate complex by Lineweaver-Burk plot analysis

[7] = target: T4, Tyrosine-protein phosphatase non-receptor type 11 (Homo sapiens); remark: listed apart in the source
Description: Mixed inhibition of recombinant SHP2 by Lineweaver-Burk plot analysis

SMILES | IC50 [1] | IC50 [2] | IC50 [3] | IC50 [4] | Kd [5] | Kis [6] | Kii [7]
COc1ccc2c(c1)CC[C@@H]1[C@@H]2CC[C@@]2(C)[C@H]1CC[C@@]21CCNP(=O)(N(CCCl)CCCl)O1 (some centres not stated) | > 300 µM | – | – | – | – | – | –
CC1=C(O)C(=O)C=C2C1=CC=C1[C@@]2(C)CC[C@@]2(C)[C@@H]3C[C@](C)(C(=O)O)CC[C@]3(C)CC[C@]12C [CELASTROL] | 3.3 µM | 27.8 µM | 75.7 µM | 13.2 µM | – | – | –
CC1(C)[C@@H](O)CC[C@]2(C)[C@H]3C(=O)C=C4[C@@H]5C[C@@](C)(C(=O)O)CC[C@]5(C)CC[C@@]4(C)[C@]3(C)CC[C@@H]12 [ENOXOLONE] | 9.6 µM | 65.4 µM | > 300 µM | – | – | – | –
C[C@]12CC[C@@H]3c4ccc(O)cc4CC[C@H]3[C@@H]1CC[C@@H]2OP(=O)(O)O [ESTRADIOL PHOSPHATE] | 19.9 µM | > 300 µM | > 300 µM | > 300 µM | – | – | –
C[C@]12CC[C@@H]3c4ccc(O)cc4CC[C@H]3[C@@H]1CC[C@@H]2O [ESTRADIOL] | > 300 µM | – | – | – | – | – | –
C[C@]12CC[C@@H]3c4ccc(OC(=O)N(CCCl)CCCl)cc4CC[C@H]3[C@@H]1CC[C@@H]2OP(=O)(O)O [ESTRAMUSTINE PHOSPHATE] | 17.1 µM | 40.4 µM | 153 µM | 62.4 µM | 8.4 µM | 22.8 µM | 10.8 µM
C[C@]12CC[C@@H]3c4ccc(OC(=O)N(CCCl)CCCl)cc4CC[C@H]3[C@@H]1CC[C@@H]2O [ESTRAMUSTINE] | > 300 µM | – | – | – | – | – | –
CC1=C(O)C(=O)C=C2C1=CC=C1[C@@]2(C)CC[C@@]2(C)[C@@H]3C[C@@H](C)C(=O)C[C@]3(C)CC[C@]12C [TINGENONE] | 61.6 µM | – | – | – | – | – | –
